Source: patent US20230121689A1, “CEPHALOSPORIN ANTIBACTERIAL COMPOUND AND PHARMACEUTICAL APPLICATION THEREOF” (priority 2020, published 2023)
Like-named read-outs stand apart in the source and are kept apart here.

Assays:
Assay type in all cases: cell-based
[1] = tested on: Carbapenem-resistant Acinetobacter baumannii (CRAB); experiment: Test Example 1: antibacterial activity test (MIC)
Experimental: (§1) The test compounds were diluted in a gradient and used for an MIC assay on the test strains. The test compounds at an initial assay concentration of 32 μg/mL were diluted in a 2-fold gradient (11 concentration points in total), and two duplicate wells were set for each concentration. Additional wells without drug dosing were set as growth controls. The minimum inhibitory concentration (MIC) assay was performed with reference to the Clinical and Laboratory Standards Institute (CLSI) guidelines.
(§2) After the frozen strains were subcultured, a single colony was picked and re-suspended in normal saline or sterile water in a tube. The bacterial suspension was vortexed and adjusted to 0.5 McF using a spectrophotometer at the wavelength of 530 nm. The bacterial solution was taken by a pipette, added to a culture medium, diluted and mixed well, and seeded to a bacterial assay plate.
(§3) The 96-well plate was affixed with a disposable sealing film, shaken and mixed well, and visually observed using a plate reader. The minimum concentration of the compounds capable of inhibiting the growth of bacteria was defined as MIC as compared to the growth controls.

[2] = tested on: Carbapenem-resistant Enterobacteriaceae (CRE); experiment: Test Example 1: antibacterial activity test (MIC)
Experimental: as §1, §2, §3

[3] = tested on: Carbapenem-resistant Pseudomonas aeruginosa (CRPA); experiment: Test Example 1: antibacterial activity test (MIC)
Experimental: as §1, §2, §3

[4] = tested on: Carbapenem-resistant Acinetobacter baumannii (CRAB, Acinetobacter baumannii); experiment: Test Example 2: antibacterial activity test (MIC)
Experimental: (§4) 1. The test compounds were dissolved in sterile normal saline, vortexed for uniformly mixing, and diluted in a 2-fold dilution with the sterile normal saline (11 concentration points in total). The test concentration range was 32-0.031 μg/mL, and two duplicate wells were set for each concentration. Additional wells without drug dosing were set as growth controls. 2. 4 μL of the diluent was added to 196 μL of the bacterial suspension in a 96-well plate (the bacterial count in the bacterial suspension was 2-8×10^5 colony forming units/mL). 3.
(§5) The minimum inhibitory concentration (MIC) assay was performed with reference to the Clinical and Laboratory Standards Institute (CLSI) guidelines.

[5] = tested on: Carbapenem-resistant Enterobacteriaceae (CRE, Klebsiella pneumoniae); experiment: Test Example 2: antibacterial activity test (MIC)
Experimental: as §4, §5

[6] = tested on: Carbapenem-resistant Pseudomonas aeruginosa (CRPA, Pseudomonas aeruginosa); experiment: Test Example 2: antibacterial activity test (MIC)
Experimental: as §4, §5

[7] = tested on: Control Strain Pseudomonas aeruginosa ATCC 27853; experiment: Test Example 2: antibacterial activity test (MIC)
Experimental: as §4, §5

[8] = tested on: Control strain Escherichia coli ATCC 25922; experiment: Test Example 2: antibacterial activity test (MIC)
Experimental: as §4, §5

Measured: MIC

CC(C)(O/N=C(\C(=O)N[C@@H]1C(=O)N2C(C(=O)[O-])=C(C[N+]3(CCCC[C@H](N)C(=O)O)CCCC3)CSC12)c1csc(N)n1)C(=O)O (some centres unmarked) [Compound 1]
32 µg/mL: [3]; CRPA strain No. 110224
> 32 µg/mL: [1]; CRAB strain No. 100085 | [1]; CRAB strain No. 100333 | [1]; CRAB strain No. 110440 | [1]; CRAB strain No. 110477 | [1]; CRAB strain No. 110517 | [2]; CRE strain No. 100109 | [2]; CRE strain No. 100186 | [2]; CRE strain No. 110502 | [2]; CRE strain No. 110525 | [2]; CRE strain No. 311277 | [3]; CRPA strain No. 110163 | [3]; CRPA strain No. 110358 | [3]; CRPA strain No. 110390
16 µg/mL: [3]; CRPA strain No. 100110

CC(C)(O/N=C(\C(=O)N[C@@H]1C(=O)N2C(C(=O)O)=C(C[N+]3(CCNC(=O)c4ccc5cc(O)c(O)cc5c4)CCCC3)CS[C@H]12)c1csc(N)n1)C(=O)O [Compound 8]
0.0625 µg/mL: [4]; ID-CAMHB, FDA-CDC AR-BANK #0052 (OXA-58, OXA-100, sul2), read-out: ID-CAMHB, MIC
8 µg/mL: [4]; ID-CAMHB, FDA-CDC AR-BANK #0063 (OXA-23, OXA-65, OXA-24, sul2), read-out: ID-CAMHB, MIC
1 µg/mL: [5]; ID-CAMHB, FDA-CDC AR-BANK #0362 (TEM-1; SHV-11; KPC-2), read-out: ID-CAMHB, MIC | [6]; ID-CAMHB, FDA-CDC AR-BANK #0439 (aac(6′)-Il, aadA1b, BCR1, IMP-18, OXA-50), read-out: ID-CAMHB, MIC
4 µg/mL: [6]; ID-CAMHB, FDA-CDC AR-BANK #0441 (KPC-2), read-out: ID-CAMHB, MIC | [6]; ID-CAMHB, FDA-CDC AR-BANK #0444 (aac(6′)-Il, dfrB5, OXA-4, tet(G), VIM-2), read-out: ID-CAMHB, MIC
2 µg/mL: [4]; ID-CAMHB, FDA-CDC AR-BANK #0101 (strB, OXA-65, OXA-24, strA, sul2), read-out: ID-CAMHB, MIC | [5]; ID-CAMHB, FDA-CDC AR-BANK #0361 (TEM-1; SHV-12; KPC-2), read-out: ID-CAMHB, MIC | [5]; ID-CAMHB, FDA-CDC AR-BANK #0438 (aph(3′)-Ia, dfrA12, KPC-3, OmpK35, oqxA, oqxB, SHV-11), read-out: ID-CAMHB, MIC | [5]; ID-CAMHB, FDA-CDC AR-BANK #0453 (KPC-3, OmpK35, oqxA, oqxB, SHV-11, TEM-1B), read-out: ID-CAMHB, MIC
0.25 µg/mL: [4]; ID-CAMHB, FDA-CDC AR-BANK #0036 (strB, OXA-65, OXA-24, strA, sul2), read-out: ID-CAMHB, MIC | [5]; ID-CAMHB, FDA-CDC AR-BANK #0363 (TEM-1; SHV-12; KPC-2), read-out: ID-CAMHB, MIC | [6]; ID-CAMHB, FDA-CDC AR-BANK #0457 (aadA6, VIM-2), read-out: ID-CAMHB, MIC | [7]; ATCC27853, ID-CAMHB, ATCC 27853, read-out: ID-CAMHB, MIC | [8]; ATCC25922, ID-CAMHB, ATCC 25922, read-out: ID-CAMHB, MIC
0.125 µg/mL: [4]; ID-CAMHB, FDA-CDC AR-BANK #0070 (OXA-58, OXA-100, sul2), read-out: ID-CAMHB, MIC

CC(C)(O/N=C(\C(=O)N[C@@H]1C(=O)N2C(C(=O)O)=C(C[N+]3(CCNC(=S)Nc4ccc(O)c(O)c4Cl)CCCC3)CS[C@H]12)c1csc(N)n1)C(=O)O [Compound 4]
16 µg/mL: [3]; CRPA strain No. 100110
> 32 µg/mL: [1]; CRAB strain No. 100085 | [1]; CRAB strain No. 100333 | [1]; CRAB strain No. 110440 | [1]; CRAB strain No. 110477 | [1]; CRAB strain No. 110517 | [2]; CRE strain No. 100109 | [2]; CRE strain No. 100186 | [2]; CRE strain No. 110502 | [2]; CRE strain No. 110525 | [2]; CRE strain No. 311277 | [3]; CRPA strain No. 110163 | [3]; CRPA strain No. 110224 | [3]; CRPA strain No. 110358 | [3]; CRPA strain No. 110390

C[C@H](CN(CCCNC(=O)c1ccc(O)c(O)c1Cl)C(=O)c1ccc(O)c(O)c1Cl)[N+]1(CC2=C(C(=O)O)N3C(=O)[C@@H](NC(=O)/C(=N\OC(C)(C)C(=O)O)c4csc(N)n4)[C@H]3SC2)CCCC1 [Compound 11]
0.125 µg/mL: [4]; read-out: ID-CAMHB, MIC, ID-CAMHB, FDA-CDC AR-BANK #0052 (OXA-58, OXA-100, sul2) | [8]; ATCC25922, read-out: ID-CAMHB, MIC
0.25 µg/mL: [4]; read-out: ID-CAMHB, MIC, ID-CAMHB, FDA-CDC AR-BANK #0070 (OXA-58, OXA-100, sul2) | [5]; read-out: ID-CAMHB, MIC, ID-CAMHB, FDA-CDC AR-BANK #0362 (TEM-1; SHV-11; KPC-2) | [6]; read-out: ID-CAMHB, MIC, ID-CAMHB, FDA-CDC AR-BANK #0457 (aadA6, VIM-2)
0.0625 µg/mL: [7]; ATCC27853, read-out: ID-CAMHB, MIC
1 µg/mL: [4]; read-out: ID-CAMHB, MIC, ID-CAMHB, FDA-CDC AR-BANK #0101 (strB, OXA-65, OXA-24, strA, sul2) | [5]; read-out: ID-CAMHB, MIC, ID-CAMHB, FDA-CDC AR-BANK #0361 (TEM-1; SHV-12; KPC-2) | [5]; read-out: ID-CAMHB, MIC, ID-CAMHB, FDA-CDC AR-BANK #0438 (aph(3′)-Ia, dfrA12, KPC-3, OmpK35, oqxA, oqxB, SHV-11) | [5]; read-out: ID-CAMHB, MIC, ID-CAMHB, FDA-CDC AR-BANK #0453 (KPC-3, OmpK35, oqxA, oqxB, SHV-11, TEM-1B)
4 µg/mL: [4]; read-out: ID-CAMHB, MIC, ID-CAMHB, FDA-CDC AR-BANK #0063 (OXA-23, OXA-65, OXA-24, sul2) | [6]; read-out: ID-CAMHB, MIC, ID-CAMHB, FDA-CDC AR-BANK #0444 (aac(6′)-Il, dfrB5, OXA-4, tet(G), VIM-2)
8 µg/mL: [6]; read-out: ID-CAMHB, MIC, ID-CAMHB, FDA-CDC AR-BANK #0441 (KPC-2)
0.5 µg/mL: [4]; read-out: ID-CAMHB, MIC, ID-CAMHB, FDA-CDC AR-BANK #0036 (strB, OXA-65, OXA-24, strA, sul2) | [5]; read-out: ID-CAMHB, MIC, ID-CAMHB, FDA-CDC AR-BANK #0363 (TEM-1; SHV-12; KPC-2) | [6]; read-out: ID-CAMHB, MIC, ID-CAMHB, FDA-CDC AR-BANK #0439 (aac(6′)-Il, aadA1b, BCR1, IMP-18, OXA-50)
